Target: T1, Mtb topoisomerase I (MtbTopI) (Mycobacterium tuberculosis, UniProt P9WG49)
T1 construct: gene topA
Format: biochemical

T1 sequence (P9WG49 whole entry): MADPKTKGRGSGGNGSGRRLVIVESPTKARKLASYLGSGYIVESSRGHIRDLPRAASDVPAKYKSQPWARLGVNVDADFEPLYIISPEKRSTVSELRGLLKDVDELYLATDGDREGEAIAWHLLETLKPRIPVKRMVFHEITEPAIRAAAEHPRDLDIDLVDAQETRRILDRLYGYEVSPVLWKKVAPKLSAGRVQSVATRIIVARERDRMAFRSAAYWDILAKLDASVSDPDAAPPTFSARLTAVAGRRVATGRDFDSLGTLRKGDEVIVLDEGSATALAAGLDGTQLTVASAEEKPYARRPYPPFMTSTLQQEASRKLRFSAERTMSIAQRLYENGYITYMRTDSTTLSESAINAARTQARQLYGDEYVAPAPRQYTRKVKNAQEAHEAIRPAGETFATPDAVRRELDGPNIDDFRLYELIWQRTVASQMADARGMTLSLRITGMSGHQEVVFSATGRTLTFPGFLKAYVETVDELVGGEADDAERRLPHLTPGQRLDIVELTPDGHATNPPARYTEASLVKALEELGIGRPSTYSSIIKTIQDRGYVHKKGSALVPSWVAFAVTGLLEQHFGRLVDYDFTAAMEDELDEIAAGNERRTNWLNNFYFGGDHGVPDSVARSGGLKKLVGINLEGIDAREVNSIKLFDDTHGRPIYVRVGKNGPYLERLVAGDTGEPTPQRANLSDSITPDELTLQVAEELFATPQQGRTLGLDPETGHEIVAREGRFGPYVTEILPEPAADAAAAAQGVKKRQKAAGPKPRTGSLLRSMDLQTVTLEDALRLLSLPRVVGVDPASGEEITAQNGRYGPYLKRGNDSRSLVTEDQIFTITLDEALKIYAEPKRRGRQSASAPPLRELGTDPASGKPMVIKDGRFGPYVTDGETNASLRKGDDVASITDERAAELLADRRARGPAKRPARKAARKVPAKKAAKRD

## Nc1ccc2c(c1)Oc1c(N3CCC(N4CCCCC4)CC3)c(F)cc3c(=O)c(C(=O)O)cn-2c13 [FP-11g]
  IC50: 240 ± 40 nM
